Experimental data published in ChEMBL document CHEMBL5038665, “Identification of the Benzoimidazole Compound as a Selective FLT3 Inhibitor by Cell-Based High-Throughput Screening of a Diversity Library” (J Med Chem, 2022).
pIC50: −log10 of the molar value. Calls of active or inactive are those of the source. The calls are words filed in the database; no cut-off is given here.

Legend:
[1] = test system: MV4-11; experiment: Antitumor activity against human MV4-11 cells xenografted in Balb/c mouse assessed as reduction in tumor weight at 100 mg/kg, po administered for 28 days; format: functional, organism-based; conditions: time 28.0 day
[2] = test system: MV4-11; experiment: Antitumor activity against human MV4-11 cells xenografted in Balb/c mouse assessed as tumor growth inhibition at 100 mg/kg, po administered for 28 days; format: functional, organism-based; conditions: time 28.0 day
[3] = target: Receptor-type tyrosine-protein kinase FLT3 (Homo sapiens) (UniProt P36888); experiment: Inhibition of FLT3-mediated signalling pathway in human MV4-11 cells assessed as inhibition of STAT5 phosphorylation at 50 nM by western blot analysis; format: cell-based
[4] = target: Fibroblast growth factor receptor 1 (Homo sapiens, UniProt P11362); experiment: Inhibition of FGFR1 (unknown origin)
[5] = Half life in 12 hrs fasted Sprague-Dawley rat at 2 mg/kg, iv measured upto 24 hrs by LC-MS analysis; format: ADME, organism-based; conditions: in vivo
[6] = target: T1, Receptor-type tyrosine-protein kinase FLT3 (Mus musculus) (UniProt Q00342); experiment: Inhibition of FLT3-mediated signalling pathway in mouse Ba/F3 FLT3-ITD cells assessed as inhibition of STAT5 phosphorylation at 1 to 900 nM measured after 12 hrs by western blot analysis; format: cell-based; conditions: dose 1-900 nM
T1 sequence (whole entry): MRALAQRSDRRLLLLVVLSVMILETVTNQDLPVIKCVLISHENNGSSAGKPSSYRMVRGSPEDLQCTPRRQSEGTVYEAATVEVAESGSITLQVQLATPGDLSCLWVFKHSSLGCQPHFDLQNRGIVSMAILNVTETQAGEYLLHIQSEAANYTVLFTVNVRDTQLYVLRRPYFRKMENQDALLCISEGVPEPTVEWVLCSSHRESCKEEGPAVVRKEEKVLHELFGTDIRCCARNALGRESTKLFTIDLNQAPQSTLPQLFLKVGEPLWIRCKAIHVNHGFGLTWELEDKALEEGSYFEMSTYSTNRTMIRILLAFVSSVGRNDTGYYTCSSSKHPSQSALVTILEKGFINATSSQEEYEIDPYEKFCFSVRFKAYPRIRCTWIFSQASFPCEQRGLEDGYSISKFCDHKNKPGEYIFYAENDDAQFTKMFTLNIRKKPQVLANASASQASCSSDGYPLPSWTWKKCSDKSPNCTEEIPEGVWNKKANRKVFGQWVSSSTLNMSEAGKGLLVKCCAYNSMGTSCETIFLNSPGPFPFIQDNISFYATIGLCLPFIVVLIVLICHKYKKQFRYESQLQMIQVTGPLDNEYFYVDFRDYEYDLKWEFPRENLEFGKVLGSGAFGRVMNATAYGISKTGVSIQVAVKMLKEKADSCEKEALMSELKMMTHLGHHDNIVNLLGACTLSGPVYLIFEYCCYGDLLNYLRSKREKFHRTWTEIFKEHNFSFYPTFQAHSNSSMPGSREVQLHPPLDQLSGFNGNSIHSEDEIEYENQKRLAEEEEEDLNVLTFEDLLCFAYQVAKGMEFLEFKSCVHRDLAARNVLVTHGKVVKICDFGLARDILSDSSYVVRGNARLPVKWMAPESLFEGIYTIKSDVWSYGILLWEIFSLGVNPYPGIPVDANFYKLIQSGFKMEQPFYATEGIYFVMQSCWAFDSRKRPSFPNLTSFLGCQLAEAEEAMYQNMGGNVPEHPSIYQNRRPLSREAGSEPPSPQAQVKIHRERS

[7] = test system: MV4-11; experiment: Induction of apoptosis in human MV4-11 cells assessed as survival population at 0.1 uM measured after 48 hrs by Annexin V-FITC/propidium iodide staining based flow cytometry(reference value: 98.01 %); format: functional
[8] = Clearance in 12 hrs fasted Sprague-Dawley rat at 2 mg/kg, iv measured upto 24 hrs by LC-MS analysis; format: ADME, organism-based; conditions: in vivo
[9] = Induction of apoptosis in mouse BaF3 cells assessed as survival population at 0.1 uM measured after 48 hrs by Annexin V-FITC/propidium iodide staining based flow cytometry(reference value: 96.35 %); format: toxicity, cell-based; conditions: read-out: Activity
[10] = target: Mast/stem cell growth factor receptor Kit (Homo sapiens, UniProt P10721); experiment: Inhibition of KIT (unknown origin)
[11] = Oral bioavailability in 12 hrs fasted Sprague-Dawley rat at 15 mg/kg by LC-MS analysis; format: ADME, organism-based; conditions: in vivo
[12] = Half life in 12 hrs fasted Sprague-Dawley rat at 15 mg/kg, po measured upto 24 hrs by LC-MS analysis; format: ADME, organism-based; conditions: in vivo
[13] = Antiproliferative activity against human ML-1 cells expressing wild type FLT3 assessed as reduction in cell viability measured after 72 hrs by MTS assay; format: functional, cell-based; conditions: ML1, 72 h
[14] = Clearance in 12 hrs fasted Sprague-Dawley rat at 15 mg/kg, po measured upto 24 hrs by LC-MS analysis; format: ADME, organism-based; conditions: in vivo
[15] = target: T1, Receptor-type tyrosine-protein kinase FLT3 (Mus musculus); experiment: Inhibition of FLT3 phosphorylation in mouse Ba/F3 FLT3-ITD cells assessed as reduction in phosphorylated FLT3 level measured after 12 hrs by western blot analysis; format: cell-based
[16] = test system: MOLM-13; experiment: Induction of apoptosis in human MOLM-13 cells assessed as survival population at 0.5 uM measured after 48 hrs by Annexin V-FITC/propidium iodide staining based flow cytometry(reference value: 97.35 %); format: functional
[17] = Antitumor activity against mouse Ba/F3 FLT3-ITD cells implanted in Balb/c mouse assessed as increase in survival time at 30 mg/kg, po administered every 24 hrs (Rvb=14 days); format: functional
[18] = Toxicity in Balb/c mouse implanted with mouse Ba/F3 FLT3-ITD cells assessed as inflammatory cell infiltration in spleen at 30 to 100 mg/kg, po administered for 14 days; format: organism-based, BaF3; conditions: in vivo, 336 h, time 14 day
[19] = test system: MV4-11; experiment: Antiproliferative activity against human MV4-11 cells harboring FLT3-ITD mutant assessed as reduction in cell viability measured after 72 hrs ny MTS assay; format: functional, cell-based; conditions: MV4-11, 72 h
[20] = Antitumor activity against mouse Ba/F3 FLT3-ITD cells implanted in Balb/c mouse assessed as increase in survival time at 60 mg/kg, po administered every 24 hrs (Rvb=14 days); format: functional
[21] = Antitumor activity against mouse Ba/F3 FLT3-ITD cells implanted in Balb/c mouse assessed as increase in survival time at 120 mg/kg, po administered every 24 hrs (Rvb=14 days); format: functional
[22] = Induction of apoptosis in mouse Ba/F3 FLT3-ITD cells assessed as survival population at 1 uM measured after 48 hrs by Annexin V-FITC/propidium iodide staining based flow cytometry(reference value: 93.99 %); format: functional
[23] = test system: MV4-11; experiment: Induction of apoptosis in human MV4-11 cells assessed as survival population at 0.5 uM measured after 48 hrs by Annexin V-FITC/propidium iodide staining based flow cytometry(reference value: 98.01 %); format: functional
[24] = target: Receptor-type tyrosine-protein kinase FLT3 (Homo sapiens) (UniProt P36888); experiment: Inhibition of FLT3 phosphorylation in human MV4-11 cells assessed as reduction in phosphorylated FLT3 level measured after 12 hrs by western blot analysis; format: cell-based
[25] = Induction of apoptosis in mouse BaF3 cells assessed as survival population at 1 uM measured after 48 hrs by Annexin V-FITC/propidium iodide staining based flow cytometry(reference value: 96.35 %); format: toxicity, cell-based; conditions: read-out: Activity

Sequence of Receptor-type tyrosine-protein kinase FLT3 (Homo sapiens) (P36888 whole entry): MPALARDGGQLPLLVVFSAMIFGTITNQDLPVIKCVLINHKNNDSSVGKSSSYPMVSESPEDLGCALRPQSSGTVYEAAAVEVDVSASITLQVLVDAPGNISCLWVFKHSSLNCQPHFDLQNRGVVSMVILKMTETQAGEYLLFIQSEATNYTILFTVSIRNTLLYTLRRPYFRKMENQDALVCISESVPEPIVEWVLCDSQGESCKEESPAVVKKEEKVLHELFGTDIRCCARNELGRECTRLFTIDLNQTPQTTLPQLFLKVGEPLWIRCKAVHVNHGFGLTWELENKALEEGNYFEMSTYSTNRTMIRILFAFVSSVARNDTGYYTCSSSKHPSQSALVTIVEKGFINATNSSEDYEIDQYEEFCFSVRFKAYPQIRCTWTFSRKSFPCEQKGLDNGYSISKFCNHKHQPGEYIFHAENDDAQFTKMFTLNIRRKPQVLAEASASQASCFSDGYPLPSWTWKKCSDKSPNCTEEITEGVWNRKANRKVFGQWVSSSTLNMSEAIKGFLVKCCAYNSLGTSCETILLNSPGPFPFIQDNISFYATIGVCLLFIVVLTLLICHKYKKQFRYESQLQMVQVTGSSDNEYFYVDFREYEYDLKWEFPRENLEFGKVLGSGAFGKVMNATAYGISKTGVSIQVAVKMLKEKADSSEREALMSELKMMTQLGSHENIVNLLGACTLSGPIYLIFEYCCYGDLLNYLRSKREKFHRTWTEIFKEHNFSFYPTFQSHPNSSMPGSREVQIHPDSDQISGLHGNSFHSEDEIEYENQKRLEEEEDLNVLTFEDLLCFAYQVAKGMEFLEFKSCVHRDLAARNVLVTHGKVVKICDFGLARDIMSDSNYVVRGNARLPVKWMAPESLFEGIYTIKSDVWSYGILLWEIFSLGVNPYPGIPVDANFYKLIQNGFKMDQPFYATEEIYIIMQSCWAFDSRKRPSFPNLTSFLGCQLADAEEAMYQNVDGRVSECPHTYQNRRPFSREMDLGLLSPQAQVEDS
Sequence of Mast/stem cell growth factor receptor Kit (P10721 whole entry): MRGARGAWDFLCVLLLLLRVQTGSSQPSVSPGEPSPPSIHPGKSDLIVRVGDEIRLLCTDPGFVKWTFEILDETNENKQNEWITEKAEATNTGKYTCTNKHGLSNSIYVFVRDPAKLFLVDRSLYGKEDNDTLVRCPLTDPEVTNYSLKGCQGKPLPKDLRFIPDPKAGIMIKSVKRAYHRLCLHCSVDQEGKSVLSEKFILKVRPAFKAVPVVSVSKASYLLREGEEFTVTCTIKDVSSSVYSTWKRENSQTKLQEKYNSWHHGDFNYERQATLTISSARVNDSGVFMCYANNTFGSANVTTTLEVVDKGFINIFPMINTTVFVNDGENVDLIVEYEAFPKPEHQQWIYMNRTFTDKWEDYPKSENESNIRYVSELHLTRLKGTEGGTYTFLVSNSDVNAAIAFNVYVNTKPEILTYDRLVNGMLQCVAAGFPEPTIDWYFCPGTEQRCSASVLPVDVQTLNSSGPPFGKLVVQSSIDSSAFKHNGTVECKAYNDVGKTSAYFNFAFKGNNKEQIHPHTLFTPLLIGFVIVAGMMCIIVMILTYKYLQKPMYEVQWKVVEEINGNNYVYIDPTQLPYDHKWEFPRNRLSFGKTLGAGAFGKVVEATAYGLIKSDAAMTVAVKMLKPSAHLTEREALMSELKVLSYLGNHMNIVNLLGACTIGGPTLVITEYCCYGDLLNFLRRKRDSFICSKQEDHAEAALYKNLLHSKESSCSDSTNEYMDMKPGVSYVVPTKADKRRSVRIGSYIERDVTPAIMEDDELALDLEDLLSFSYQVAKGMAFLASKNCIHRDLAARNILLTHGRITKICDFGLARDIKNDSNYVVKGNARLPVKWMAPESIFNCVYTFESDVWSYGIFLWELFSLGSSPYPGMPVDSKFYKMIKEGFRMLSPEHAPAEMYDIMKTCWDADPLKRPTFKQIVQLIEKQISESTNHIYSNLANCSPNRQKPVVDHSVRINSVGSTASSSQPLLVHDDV
Sequence of Fibroblast growth factor receptor 1 (P11362 whole entry): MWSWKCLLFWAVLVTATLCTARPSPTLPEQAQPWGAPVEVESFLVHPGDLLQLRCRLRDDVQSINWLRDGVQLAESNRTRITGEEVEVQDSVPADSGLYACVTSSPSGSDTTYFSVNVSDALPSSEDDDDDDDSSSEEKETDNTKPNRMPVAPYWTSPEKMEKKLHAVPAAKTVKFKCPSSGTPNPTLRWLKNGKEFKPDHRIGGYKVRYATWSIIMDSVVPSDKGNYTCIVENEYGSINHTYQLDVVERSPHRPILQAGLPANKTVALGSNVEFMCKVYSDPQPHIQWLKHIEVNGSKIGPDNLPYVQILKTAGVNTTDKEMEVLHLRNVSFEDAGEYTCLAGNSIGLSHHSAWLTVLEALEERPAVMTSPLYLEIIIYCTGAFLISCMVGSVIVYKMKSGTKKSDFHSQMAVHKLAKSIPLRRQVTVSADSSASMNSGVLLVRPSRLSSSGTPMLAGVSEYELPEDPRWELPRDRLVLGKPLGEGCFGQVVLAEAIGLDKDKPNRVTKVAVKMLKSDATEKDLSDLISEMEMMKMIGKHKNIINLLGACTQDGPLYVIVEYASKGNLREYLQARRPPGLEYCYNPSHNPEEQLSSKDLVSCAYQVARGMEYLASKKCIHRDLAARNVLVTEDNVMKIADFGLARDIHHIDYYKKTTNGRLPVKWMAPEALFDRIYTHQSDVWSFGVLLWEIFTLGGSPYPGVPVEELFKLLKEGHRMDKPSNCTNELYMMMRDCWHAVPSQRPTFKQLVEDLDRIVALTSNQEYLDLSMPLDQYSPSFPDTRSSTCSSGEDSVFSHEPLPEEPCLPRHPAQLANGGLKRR

**Q.** With `COc1cc(CNc2ccc3c(c2)ncn3-c2ccccc2)ccc1OCCO` as the molecule, how does the Activity [1] read?
**A.** Active

**Q.** What about the Activity [2] of the same molecule?
**A.** Active

**Q.** And the inhibition [3]?
**A.** Active

**Q.** What about the pIC50 [4] of the same molecule?
**A.** < 6.00

**Q.** What about the half-life [5] of the same molecule?
**A.** 0.31 h

**Q.** And the inhibition [6]?
**A.** Active

**Q.** And the Activity [7]?
**A.** 94.26%

**Q.** What about the clearance [8] of the same molecule?
**A.** 43.2 mL/min/kg

**Q.** What about the viability at 48 h, 0.1 µM [9] of the same molecule?
**A.** 98.3%

**Q.** And the pIC50 [10]?
**A.** 6.80

**Q.** And the bioavailability [11]?
**A.** 48.2%

**Q.** And the half-life [12]?
**A.** 4.28 h

**Q.** And the pIC50 [13]?
**A.** < 4.30

**Q.** What about the CL/F [14] of the same molecule?
**A.** 84.7 mL/min/kg

**Q.** What about the inhibition [15] of the same molecule?
**A.** Dose-Dependent Effect

**Q.** What about the Activity [16] of the same molecule?
**A.** 68.85%

**Q.** And the Time [17]?
**A.** 18 days

**Q.** And the Activity [18]?
**A.** Non-Toxic

**Q.** What about the pIC50 [19] of the same molecule?
**A.** 6.78

**Q.** And the Time [20]?
**A.** 22 days

**Q.** And the Time [21]?
**A.** 25 days

**Q.** What about the Activity [22] of the same molecule?
**A.** 43.13%

**Q.** What about the Activity [23] of the same molecule?
**A.** 78.6%

**Q.** And the inhibition [24]?
**A.** Active

**Q.** What about the viability at 48 h, 1 µM [25] of the same molecule?
**A.** 97.7%
